Values quoted from earlier work, collected in patent US20050042177A1, “Novel compositions of sildenafil free base” (Elan Pharma International Ltd., priority 2003, published 2005).

Legend:
PDE6 = conditions: PDE5 versus PDE6
[1] = 100 mg oral dose, healthy adult males

Compound | Tmax [1] [h] | mean Cmax [1] [ng/mL] | t1/2 [1] | absolute bioavailability (in vivo) [%] | potency for PDE5 as compared to PDE6 (PDE6)
CCCc1nn(C)c2c(=O)[nH]c(-c3cc(S(=O)(=O)N4CCN(C)CC4)ccc3OCC)nc12.O=C(O)CC(O)(CC(=O)O)C(=O)O [Sildenafil citrate, 1-[[3-(6,7-dihydro-1-methyl-7-oxo-3-propyl-1H-pyrazolo[4,3-d]pyrimidin-5-yl)-4-ethoxyphenyl]sulfonyl]-4 methylpiperazine citrate] | 1 | 440 | about 4 hours | 40 | –
CCCc1nn(C)c2c(=O)[nH]c(-c3cc(S(=O)(=O)N4CCN(C)CC4)ccc3OCC)nc12 [Sildenafil, 1-[[3-(6,7-dihydro-1-methyl-7-oxo-3-propyl-1H-pyrazolo[4,3-d]pyrimidin-5-yl)-4-ethoxyphenyl]sulfonyl]-4-methylpiperazine] | – | – | – | – | approximately 10 fold
